Results reported in patent US12252524B2, “GIP/GLP1 co-agonist compounds” (Eli Lilly and Company, priority 2018, dated 2025).

Legend:
[1] = molecular target: T1, gastric inhibitory peptide receptor (GIPR) (Homo sapiens, UniProt P48546); experiment: cAMP pharmacological functional assay in presence of casein, hGIPR; assay type: cell-based; settings: HEK293 cells expressing hGIPR, 0.1% Casein, geometric mean; read-out: hGIPR cAMP Rel EC50 nM (SEM, n)
T1 sequence (P48546 22-466): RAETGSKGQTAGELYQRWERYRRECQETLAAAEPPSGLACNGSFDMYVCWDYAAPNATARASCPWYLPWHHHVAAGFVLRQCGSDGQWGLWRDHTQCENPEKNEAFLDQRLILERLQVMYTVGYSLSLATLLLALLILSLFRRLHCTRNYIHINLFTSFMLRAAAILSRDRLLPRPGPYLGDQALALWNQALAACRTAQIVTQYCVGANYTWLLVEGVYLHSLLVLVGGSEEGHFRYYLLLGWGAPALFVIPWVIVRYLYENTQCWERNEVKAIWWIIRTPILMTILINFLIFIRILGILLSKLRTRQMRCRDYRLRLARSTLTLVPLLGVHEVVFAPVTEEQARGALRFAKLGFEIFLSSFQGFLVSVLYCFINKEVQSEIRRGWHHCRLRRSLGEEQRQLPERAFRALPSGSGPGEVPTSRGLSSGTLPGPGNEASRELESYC

human Gcg receptor = molecular target: T2, human Gcg receptor (Homo sapiens, UniProt P47871); experiment: [125I]-Glucagon binding (SPA), human Gcg receptor; settings: read-out: hGLcgR Ki, nM (SEM, n)
T2 construct: expressed in transfected cells; crude membranes
Summary of the method: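 Scintillation counts are taken after membranes and WGA beads incubate and settle for 12 hours at room temperature. Buffer is 25 mM HEPES, pH 7.4, with CaCl2, MgCl2, bacitracin and Tween-20. Ki values, from four-parameter IC50 fits, are geometric means over independent days.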

[2] = molecular target: human GLP-1 receptor (GLP-1R) (Homo sapiens, UniProt P43220); experiment: cAMP pharmacological functional assay in presence of casein, hGLP-1R; assay type: cell-based; settings: HEK293 cells expressing hGLP-1R, 0.1% Casein, geometric mean; read-out: hGLP1R cAMP Rel EC50 nM (SEM, n)
human GIP receptor = molecular target: T3, human GIP receptor (Homo sapiens, UniProt P48546); experiment: [125I]-GIP binding (SPA), human GIP receptor; settings: read-out: hGIPR Ki, nM (SEM, n)
T3 construct: expressed in transfected cells; crude membranes
T3 sequence (P48546 22-466): T1 sequence (P48546 22-466)

human GLP-1R = human GLP-1R (Homo sapiens, UniProt P43220); experiment: [125I]-GLP-1 binding (SPA), human GLP-1 receptor; parameters: expressed in transfected cells; crude membranes; settings: read-out: hGLP1R Ki, (nM) (SEM, n)
Summary of the method: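 Membranes: hypotonic lysis (50 mM Tris HCl, pH 7.5, protease inhibitors), Potter-Elvehjem homogenization, high-speed pellet (35000×g 1 h or 25000×g 30 min, 4° C.). Buffer: 25 mM HEPES pH 7.4, 2.5 mM CaCl2, 1 mM MgCl2. Four-parameter IC50 fit; Ki as geometric mean ± SEM.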

Sequence of human GLP-1R (P43220 24-463): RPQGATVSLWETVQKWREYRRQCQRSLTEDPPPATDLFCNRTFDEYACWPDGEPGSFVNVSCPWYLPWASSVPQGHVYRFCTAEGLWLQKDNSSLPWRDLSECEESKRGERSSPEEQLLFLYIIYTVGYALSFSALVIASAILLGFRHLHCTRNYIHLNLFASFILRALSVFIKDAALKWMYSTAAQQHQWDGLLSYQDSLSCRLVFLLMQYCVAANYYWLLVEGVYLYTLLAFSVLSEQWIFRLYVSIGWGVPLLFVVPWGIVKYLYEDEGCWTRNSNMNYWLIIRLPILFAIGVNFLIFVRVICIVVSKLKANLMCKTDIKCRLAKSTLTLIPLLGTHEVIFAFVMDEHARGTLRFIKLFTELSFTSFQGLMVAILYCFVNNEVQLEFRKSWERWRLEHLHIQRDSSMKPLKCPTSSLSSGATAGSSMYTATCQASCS
Sequence of human GLP-1 receptor (GLP-1R) (P43220 24-463): as above
T2 sequence (P47871 26-477): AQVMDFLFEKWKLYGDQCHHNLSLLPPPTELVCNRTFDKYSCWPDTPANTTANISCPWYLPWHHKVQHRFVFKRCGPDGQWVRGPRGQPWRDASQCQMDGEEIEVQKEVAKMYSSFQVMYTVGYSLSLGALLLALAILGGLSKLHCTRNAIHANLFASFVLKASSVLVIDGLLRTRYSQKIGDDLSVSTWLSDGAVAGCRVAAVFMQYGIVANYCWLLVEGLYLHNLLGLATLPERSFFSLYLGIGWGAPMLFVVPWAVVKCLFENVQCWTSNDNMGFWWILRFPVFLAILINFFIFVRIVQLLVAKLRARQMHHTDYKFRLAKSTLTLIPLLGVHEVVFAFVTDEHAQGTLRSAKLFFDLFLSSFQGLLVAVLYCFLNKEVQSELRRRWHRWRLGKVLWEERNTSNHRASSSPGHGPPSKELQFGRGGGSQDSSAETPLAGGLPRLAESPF

Structure (SMILES) | EC50 [1] [nM] | Ki (human Gcg receptor) [nM] | EC50 [2] [nM] | Ki (human GIP receptor) [nM] | Ki (human GLP-1R) [nM]
CC[C@H](C)[C@H](NC(=O)[C@H](CC(C)C)NC(=O)[C@H](Cc1ccc(O)cc1)NC(=O)[C@H](CCC(=O)O)NC(=O)[C@@H](NC(=O)[C@](C)(Cc1ccccc1)NC(=O)[C@H](C)NC(=O)C(C)(C)NC(=O)[C@H](CCC(N)=O)NC(=O)[C@H](C)NC(=O)[C@H](CCCCNC(=O)COCCOCCNC(=O)COCCOCCNC(=O)CC[C@H](NC(=O)CCCCCCCCCCCCCCCCCCC(=O)O)C(=O)O)NC(=O)[C@H](CCCCN)NC(=O)[C@H](CC(=O)O)NC(=O)[C@H](CC(C)C)NC(=O)[C@H](CC(C)C)NC(=O)[C@@H](NC(=O)[C@H](CO)NC(=O)[C@H](Cc1ccc(O)cc1)NC(=O)[C@H](CC(=O)O)NC(=O)[C@H](CO)NC(=O)[C@@H](NC(=O)[C@H](Cc1ccccc1)NC(=O)[C@@H](NC(=O)CNC(=O)[C@H](CCC(=O)O)NC(=O)C(C)(C)NC(=O)[C@@H](N)Cc1ccc(O)cc1)[C@@H](C)O)[C@@H](C)O)[C@@H](C)CC)[C@@H](C)CC)C(=O)N[C@@H](CCC(=O)O)C(=O)NCC(=O)NCC(=O)N1CCC[C@H]1C(=O)N[C@@H](CO)C(=O)N[C@@H](CO)C(=O)NCC(=O)N[C@@H](C)C(=O)N1CCC[C@H]1C(=O)N1CCC[C@H]1C(=O)N1CCC[C@H]1C(=O)N[C@@H](CO)C(N)=O [Example 67] | 0.0913 | 270 | 0.447 | 0.061 | 10.2
CC[C@H](C)[C@H](NC(=O)[C@H](CC(C)C)NC(=O)[C@H](Cc1ccc(O)cc1)NC(=O)[C@H](CCC(=O)O)NC(=O)[C@@H](NC(=O)[C@H](Cc1ccccc1)NC(=O)[C@H](C)NC(=O)C(C)(C)NC(=O)[C@H](CCC(N)=O)NC(=O)[C@H](C)NC(=O)[C@H](CCCCNC(=O)COCCOCCNC(=O)COCCOCCNC(=O)CC[C@H](NC(=O)CCCCCCCCCCCCCCCCCCC(=O)O)C(=O)O)NC(=O)[C@H](CCCCN)NC(=O)[C@H](CC(=O)O)NC(=O)[C@H](CC(C)C)NC(=O)[C@H](CC(C)C)NC(=O)[C@@H](NC(=O)[C@](C)(CO)NC(=O)[C@H](Cc1ccc(O)cc1)NC(=O)[C@H](CC(=O)O)NC(=O)[C@H](CO)NC(=O)[C@@H](NC(=O)[C@H](Cc1ccccc1)NC(=O)[C@@H](NC(=O)CNC(=O)[C@H](CCC(=O)O)NC(=O)C(C)(C)NC(=O)[C@@H](N)Cc1ccc(O)cc1)[C@@H](C)O)[C@@H](C)O)[C@@H](C)CC)[C@@H](C)CC)C(=O)N[C@@H](CCC(=O)O)C(=O)NCC(=O)NCC(=O)N1CCC[C@H]1C(=O)N[C@@H](CO)C(=O)N[C@@H](CO)C(=O)NCC(=O)N[C@@H](C)C(=O)N1CCC[C@H]1C(=O)N1CCC[C@H]1C(=O)N1CCC[C@H]1C(=O)N[C@@H](CO)C(N)=O [Example 68] | 0.0881 | 99.2 | 0.153 | 0.0243 | 1.58
CC[C@H](C)[C@H](NC(=O)[C@H](CC(C)C)NC(=O)[C@H](Cc1ccc(O)cc1)NC(=O)[C@H](CCC(=O)O)NC(=O)[C@@H](NC(=O)[C@](C)(Cc1ccccc1)NC(=O)[C@H](C)NC(=O)C(C)(C)NC(=O)[C@H](CCC(N)=O)NC(=O)[C@H](C)NC(=O)[C@H](CCCCNC(=O)COCCOCCNC(=O)COCCOCCNC(=O)CC[C@H](NC(=O)CCCCCCCCCCCCCCCCCCC(=O)O)C(=O)O)NC(=O)[C@H](CCCCN)NC(=O)[C@H](CC(=O)O)NC(=O)[C@H](CC(C)C)NC(=O)[C@](C)(CC(C)C)NC(=O)[C@@H](NC(=O)[C@H](CO)NC(=O)[C@H](Cc1ccc(O)cc1)NC(=O)[C@H](CC(=O)O)NC(=O)[C@H](CO)NC(=O)[C@@H](NC(=O)[C@H](Cc1ccccc1)NC(=O)[C@@H](NC(=O)CNC(=O)[C@H](CCC(=O)O)NC(=O)C(C)(C)NC(=O)[C@@H](N)Cc1ccc(O)cc1)[C@@H](C)O)[C@@H](C)O)[C@@H](C)CC)[C@@H](C)CC)C(=O)N[C@@H](CCC(=O)O)C(=O)NCC(=O)NCC(=O)N1CCC[C@H]1C(=O)N[C@@H](CO)C(=O)N[C@@H](CO)C(=O)NCC(=O)N[C@@H](C)C(=O)N1CCC[C@H]1C(=O)N1CCC[C@H]1C(=O)N1CCC[C@H]1C(=O)N[C@@H](CO)C(N)=O [Example 74] | 0.0866 | 69.8 | 0.467 | 0.0279 | 5.99
CC[C@H](C)[C@H](NC(=O)[C@H](Cc1ccccc1)NC(=O)[C@H](C)NC(=O)C(C)(C)NC(=O)[C@H](CCC(N)=O)NC(=O)[C@H](C)NC(=O)[C@H](CCCCNC(=O)COCCOCCNC(=O)COCCOCCNC(=O)CC[C@H](NC(=O)CCCCCCCCCCCCCCCCCCC(=O)O)C(=O)O)NC(=O)[C@H](CCCCN)NC(=O)[C@H](CC(=O)O)NC(=O)[C@H](CC(C)C)NC(=O)[C@](C)(CC(C)C)NC(=O)[C@@H](NC(=O)[C@H](CO)NC(=O)[C@H](Cc1ccc(O)cc1)NC(=O)[C@H](CC(=O)O)NC(=O)[C@H](CO)NC(=O)[C@@H](NC(=O)[C@H](Cc1ccccc1)NC(=O)[C@@H](NC(=O)CNC(=O)[C@H](CCC(=O)O)NC(=O)C(C)(C)NC(=O)[C@@H](N)Cc1ccc(O)cc1)[C@@H](C)O)[C@@H](C)O)[C@@H](C)CC)C(=O)N[C@@H](CCC(=O)O)C(=O)N[C@@H](Cc1ccc(O)cc1)C(=O)N[C@@](C)(CC(C)C)C(=O)N[C@H](C(=O)N[C@@H](CCC(=O)O)C(=O)NCC(=O)NCC(=O)N1CCC[C@H]1C(=O)N[C@@H](CO)C(=O)N[C@@H](CO)C(=O)NCC(=O)N[C@@H](C)C(=O)N1CCC[C@H]1C(=O)N1CCC[C@H]1C(=O)N1CCC[C@H]1C(=O)N[C@@H](CO)C(N)=O)[C@@H](C)CC [Example 75] | 0.214 | 283 | 1.49 | 0.103 | 24.4
CC[C@H](C)[C@H](NC(=O)[C@H](CC(C)C)NC(=O)[C@H](Cc1ccc(O)cc1)NC(=O)[C@H](CCC(=O)O)NC(=O)[C@@H](NC(=O)[C@](C)(Cc1ccccc1)NC(=O)[C@H](C)NC(=O)C(C)(C)NC(=O)[C@H](CCC(N)=O)NC(=O)[C@H](C)NC(=O)[C@H](CCCCNC(=O)COCCOCCNC(=O)COCCOCCNC(=O)CC[C@H](NC(=O)CCCCCCCCCCCCCCCCCCC(=O)O)C(=O)O)NC(=O)[C@H](CCCCN)NC(=O)[C@H](CC(=O)O)NC(=O)[C@H](CC(C)C)NC(=O)[C@](C)(CC(C)C)NC(=O)[C@@H](NC(=O)[C@H](CO)NC(=O)[C@H](Cc1ccc(O)cc1)NC(=O)[C@H](CC(=O)O)NC(=O)[C@H](CO)NC(=O)[C@@H](NC(=O)[C@](C)(Cc1ccccc1)NC(=O)[C@@H](NC(=O)CNC(=O)[C@H](CCC(=O)O)NC(=O)C(C)(C)NC(=O)[C@@H](N)Cc1ccc(O)cc1)[C@@H](C)O)[C@@H](C)O)[C@@H](C)CC)[C@@H](C)CC)C(=O)N[C@@H](CCC(=O)O)C(=O)NCC(=O)NCC(=O)N1CCC[C@H]1C(=O)N[C@@H](CO)C(=O)N[C@@H](CO)C(=O)NCC(=O)N[C@@H](C)C(=O)N1CCC[C@H]1C(=O)N1CCC[C@H]1C(=O)N1CCC[C@H]1C(=O)N[C@@H](CO)C(N)=O [Example 76] | 0.124 | 14.4 | 0.125 | 0.0659 | 2.64
CC[C@H](C)[C@H](NC(=O)[C@H](CC(C)C)NC(=O)[C@H](Cc1ccc(O)cc1)NC(=O)[C@H](CCC(=O)O)NC(=O)[C@@H](NC(=O)[C@H](Cc1ccccc1)NC(=O)[C@H](C)NC(=O)C(C)(C)NC(=O)[C@H](CCC(N)=O)NC(=O)[C@H](C)NC(=O)[C@H](CCCCNC(=O)COCCOCCNC(=O)COCCOCCNC(=O)CC[C@H](NC(=O)CCCCCCCCCCCCCCCCCCC(=O)O)C(=O)O)NC(=O)[C@H](CCCCN)NC(=O)[C@H](CC(=O)O)NC(=O)[C@H](CC(C)C)NC(=O)[C@H](CC(C)C)NC(=O)[C@@H](NC(=O)[C@H](CO)NC(=O)[C@H](Cc1ccc(O)cc1)NC(=O)[C@H](CC(=O)O)NC(=O)[C@H](CO)NC(=O)[C@@H](NC(=O)[C@H](Cc1ccccc1)NC(=O)[C@@H](NC(=O)CNC(=O)[C@H](CCC(=O)O)NC(=O)C(C)(C)NC(=O)[C@H](N)Cc1ccc(O)cc1)[C@@H](C)O)[C@@H](C)O)[C@@H](C)CC)[C@@H](C)CC)C(=O)N[C@@H](CCC(=O)O)C(=O)NCC(=O)NCC(=O)N1CCC[C@H]1C(=O)N[C@@H](CO)C(=O)N[C@@H](CO)C(=O)NCC(=O)N[C@@H](C)C(=O)N1CCC[C@H]1C(=O)N1CCC[C@H]1C(=O)N1CCC[C@H]1C(=O)N[C@@H](CO)C(N)=O [Example 78] | 0.532 | 215 | 0.544 | 0.163 | 3.94
